Read-outs that look alike come from different tables or passages of the source.
Legend:
[1] = target: T1, CYP2B6 (Homo sapiens, UniProt P20813); assay: CYP2B6 Vivid CYP450 Blue fluorescent inhibition assay; type: biochemical; conditions: for CYP2B6 Hillslope: variable slope sigmoidal fit, GraphPad Prism 7.0; for IC50 Ratio: ratio of the IC50 values from the two CYPs, + indicates greater affinity for CYP2B6, – greater affinity for CYP3A4
T1 sequence (P20813 1-491): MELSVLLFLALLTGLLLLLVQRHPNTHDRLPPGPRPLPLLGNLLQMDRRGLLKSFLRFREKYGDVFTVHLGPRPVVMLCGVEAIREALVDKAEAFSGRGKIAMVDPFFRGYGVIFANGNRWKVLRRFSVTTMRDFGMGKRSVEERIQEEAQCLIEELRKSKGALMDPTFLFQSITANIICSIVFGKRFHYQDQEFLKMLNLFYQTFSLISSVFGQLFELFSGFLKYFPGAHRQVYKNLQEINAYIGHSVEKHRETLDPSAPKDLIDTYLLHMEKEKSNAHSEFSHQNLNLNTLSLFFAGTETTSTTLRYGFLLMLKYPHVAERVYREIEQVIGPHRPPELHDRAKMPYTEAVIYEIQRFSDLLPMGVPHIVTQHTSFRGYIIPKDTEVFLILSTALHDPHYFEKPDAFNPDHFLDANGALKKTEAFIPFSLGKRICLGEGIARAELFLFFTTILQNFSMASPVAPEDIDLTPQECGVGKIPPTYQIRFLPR

[2] = target: CYP3A4 (Homo sapiens, UniProt P08684); assay: CYP3A4 Vivid CYP450 Red fluorescent inhibition assay; type: biochemical; conditions: for CYP3A4 Hillslope: variable slope sigmoidal fit, GraphPad Prism 7.0
CYP3A4, sequence (P08684 whole entry): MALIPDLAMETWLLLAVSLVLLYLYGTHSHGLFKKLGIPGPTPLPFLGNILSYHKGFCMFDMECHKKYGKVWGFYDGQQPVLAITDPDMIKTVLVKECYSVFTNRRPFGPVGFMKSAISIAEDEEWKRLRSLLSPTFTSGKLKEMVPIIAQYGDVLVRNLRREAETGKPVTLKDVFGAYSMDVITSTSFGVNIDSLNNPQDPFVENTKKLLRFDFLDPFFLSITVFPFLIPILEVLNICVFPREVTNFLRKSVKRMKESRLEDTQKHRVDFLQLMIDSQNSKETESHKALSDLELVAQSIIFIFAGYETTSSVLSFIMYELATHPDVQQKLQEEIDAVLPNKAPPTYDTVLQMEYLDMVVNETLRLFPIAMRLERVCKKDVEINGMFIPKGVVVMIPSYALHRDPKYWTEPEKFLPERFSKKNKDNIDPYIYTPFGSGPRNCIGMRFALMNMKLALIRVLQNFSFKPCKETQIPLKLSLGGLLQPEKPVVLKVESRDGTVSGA

Row | Compound | IC50 [1] [µM] | CYP2B6 Hillslope [1] | IC50 [2] [µM] | CYP3A4 Hillslope [2] | IC50 Ratio [1] | IC50 ([2]; read-out: CYP3A4 IC50, CYP3A4-transfected baculosomes, concentration-response, n = 3–12) [µM]
1 | CCCCC/C=C\C/C=C\C/C=C\C/C=C\CCCC(=O)O [Arachidonic acid] | 1.04 | −0.59 | 13.7 | −4.08 |  | 
2 | CCNc1nc(Cl)nc(NC(C)C)n1 [Atrazine] | 0.144 | −0.34 |  |  |  | 
3 | CC(C)(c1ccc(O)cc1)c1ccc(O)cc1 [Bisphenol A] | 8.44 | −2.65 |  |  |  | 
4 | C[C@H](CCC(=O)O)[C@H]1CC[C@H]2[C@@H]3[C@H](O)C[C@@H]4C[C@H](O)CC[C@]4(C)[C@H]3CC[C@]12C [Chenodeoxycholic acid] | 49 | −1.32 |  |  |  | 
5 | CCOP(=S)(OCC)Oc1nc(Cl)c(Cl)cc1Cl [Chlorpyrifos] | 0.0092 | −2.09 | 0.28 |  | +30.4 | 
6 | CC1(C)C(C=C(Cl)Cl)C1C(=O)OC(C#N)c1cccc(Oc2ccccc2)c1 (stereo not drawn) [Cypermethrin] | 6040 | −0.79 |  |  |  | 
7 | CCOP(=S)(OCC)Oc1cc(C)nc(C(C)C)n1 [Diazinon] | 0.0754 | −1.51 |  | −2.52 |  | 
8 | CC/C=C\C/C=C\C/C=C\C/C=C\C/C=C\C/C=C\CCC(=O)O [Docosahexaenoic acid] | 2.06 | −1.22 | 5.08 | −5.0 |  | 
9 | O=S1OCC2C(CO1)C1(Cl)C(Cl)=C(Cl)C2(Cl)C1(Cl)Cl (stereo not drawn) [Endosulfan] | 0.003 | −0.66 | 0.0046 | −0.261 |  | 
10 | C[C@]12CC[C@@H]3c4ccc(O)cc4CC[C@H]3[C@@H]1CC[C@@H]2O [Estradiol] | 42.2 | −0.33 | 2.78 | −0.903 |  | 
11 | CCCCC/C=C\C/C=C\CCCCCCCC(=O)O [Linoleic acid] | 9.19 | −0.69 | 18.3 | −4.46 |  | 
12 | C[C@H](CCC(=O)O)[C@H]1CC[C@H]2[C@@H]3CC[C@@H]4C[C@H](O)CC[C@]4(C)[C@H]3CC[C@]12C [Lithocholic acid] | 2.47 | −0.51 |  |  |  | 
13 | CCCCCCCC/C=C\CCCCCCCC(=O)O [Oleic acid] | 9.3 | −2.45 |  |  |  | 
14 | CCCCCCCCCCCCCCCC(=O)O [Palmitic acid] |  |  | 19900 |  |  | 
15 | CCOP(=S)(OCC)Oc1ccc([N+](=O)[O-])cc1 [Parathion] | 0.026 | −1.13 | 0.729 | −0.094 | +28.03 | 
16 | O=C(O)c1ccccc1C(=O)O [Phthalic acid] | 1170 | −1.71 |  |  |  | 
17 | C[C@]12CC[C@H]3[C@@H](CCC4=CC(=O)CC[C@@]43C)[C@@H]1CC[C@@H]2O [Testosterone] | 90.2 | −0.32 |  |  |  | 
18 | Clc1ccccc1CN1CCc2sccc2C1 [Ticlopidine, reference compound] |  | −0.95 |  |  |  | 
19 | Oc1cc(Cl)ccc1Oc1ccc(Cl)cc1Cl [Triclosan] | 0.944 | −1.30 |  | −1.46 |  | 
20 | CC/C=C\C/C=C\C/C=C\CCCCCCCC(=O)O [α-Linolenic acid] | 7.32 | −1.45 | 4.04 | −0.701 |  | 
21 | Nonylphenol |  | −1.21 |  | −1.02 |  | 6.25
